The results in this text go back to publication PMC10837223, “Acute antiarrhythmic effects of SGLT2 inhibitors–dapagliflozin lowers the excitability of atrial cardiomyocytes” (Basic Research in Cardiology, 2024).

This assay has as its target T1, NaV1.5 (Homo sapiens, UniProt Q14524, Y1767A).
T1 construct: gene SCN5A
The experiment in a line: cell-based. The note with it: CHO, read-out: % reduction at 100 μmol/L.

T1 sequence (Q14524 whole entry Y1767A): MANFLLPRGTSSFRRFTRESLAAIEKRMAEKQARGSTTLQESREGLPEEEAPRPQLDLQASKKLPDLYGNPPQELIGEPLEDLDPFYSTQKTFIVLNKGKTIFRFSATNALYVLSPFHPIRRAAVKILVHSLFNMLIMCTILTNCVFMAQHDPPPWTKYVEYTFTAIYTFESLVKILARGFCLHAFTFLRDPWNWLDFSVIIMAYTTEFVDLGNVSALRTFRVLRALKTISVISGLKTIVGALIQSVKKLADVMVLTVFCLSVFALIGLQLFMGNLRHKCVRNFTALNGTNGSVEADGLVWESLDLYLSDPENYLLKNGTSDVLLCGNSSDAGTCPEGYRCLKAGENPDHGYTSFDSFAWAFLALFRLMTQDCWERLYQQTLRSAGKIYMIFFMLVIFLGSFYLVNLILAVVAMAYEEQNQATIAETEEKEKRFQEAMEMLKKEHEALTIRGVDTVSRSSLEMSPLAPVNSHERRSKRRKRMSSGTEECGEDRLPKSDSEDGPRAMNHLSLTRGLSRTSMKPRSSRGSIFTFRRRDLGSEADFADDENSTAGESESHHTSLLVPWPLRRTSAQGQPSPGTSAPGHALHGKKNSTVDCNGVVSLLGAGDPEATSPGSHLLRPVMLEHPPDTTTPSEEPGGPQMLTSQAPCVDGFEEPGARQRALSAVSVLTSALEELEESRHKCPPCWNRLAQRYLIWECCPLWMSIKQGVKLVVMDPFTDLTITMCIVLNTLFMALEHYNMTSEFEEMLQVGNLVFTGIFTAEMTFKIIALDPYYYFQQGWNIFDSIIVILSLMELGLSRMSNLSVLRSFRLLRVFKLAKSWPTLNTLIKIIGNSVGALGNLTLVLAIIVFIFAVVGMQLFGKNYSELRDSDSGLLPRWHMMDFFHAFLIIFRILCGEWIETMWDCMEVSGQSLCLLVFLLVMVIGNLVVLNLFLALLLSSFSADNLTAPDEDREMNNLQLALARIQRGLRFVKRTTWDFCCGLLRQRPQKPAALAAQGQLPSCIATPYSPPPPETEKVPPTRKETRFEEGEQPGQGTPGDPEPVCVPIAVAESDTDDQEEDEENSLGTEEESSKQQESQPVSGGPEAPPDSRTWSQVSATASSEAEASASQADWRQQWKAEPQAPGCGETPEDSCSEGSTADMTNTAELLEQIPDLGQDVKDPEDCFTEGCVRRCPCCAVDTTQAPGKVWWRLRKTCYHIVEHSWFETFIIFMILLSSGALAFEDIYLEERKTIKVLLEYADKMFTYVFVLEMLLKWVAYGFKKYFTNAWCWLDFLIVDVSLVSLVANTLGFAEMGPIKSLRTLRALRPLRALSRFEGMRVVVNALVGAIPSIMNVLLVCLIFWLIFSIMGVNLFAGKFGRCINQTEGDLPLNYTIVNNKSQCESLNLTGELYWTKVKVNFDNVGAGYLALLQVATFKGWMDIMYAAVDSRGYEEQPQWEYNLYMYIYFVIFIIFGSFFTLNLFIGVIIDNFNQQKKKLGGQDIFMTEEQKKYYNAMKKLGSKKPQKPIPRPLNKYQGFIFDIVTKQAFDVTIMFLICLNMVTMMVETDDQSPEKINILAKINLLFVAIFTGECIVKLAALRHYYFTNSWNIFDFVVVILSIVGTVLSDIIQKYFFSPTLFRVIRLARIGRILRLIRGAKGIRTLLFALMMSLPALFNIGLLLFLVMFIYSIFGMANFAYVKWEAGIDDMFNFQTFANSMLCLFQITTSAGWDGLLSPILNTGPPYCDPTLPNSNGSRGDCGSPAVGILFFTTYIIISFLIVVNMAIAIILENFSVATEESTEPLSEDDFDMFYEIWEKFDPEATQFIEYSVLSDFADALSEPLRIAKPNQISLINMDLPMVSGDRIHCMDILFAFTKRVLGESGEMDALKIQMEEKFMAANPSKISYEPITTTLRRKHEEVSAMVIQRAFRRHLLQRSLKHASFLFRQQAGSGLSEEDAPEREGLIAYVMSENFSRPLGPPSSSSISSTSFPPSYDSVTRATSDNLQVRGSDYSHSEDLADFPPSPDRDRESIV

`CCOc1ccc(Cc2cc([C@@H]3O[C@H](CO)[C@@H](O)[C@H](O)[C@H]3O)ccc2Cl)cc1` [dapagliflozin]: the inhibition at 100 µM worked out at 68.3 ± 4.2%.
